Tests used:
Experiment in all cases: area under dose-response curve of surviving fraction (unscaled, Aref=0) (surviving fraction x log10(nM)); higher = more resistant
Conditions in all cases: exposure time: 5 days; dose range 0.5-1000 nM
SUNITINIB = compound: CCN(CC)CCNC(=O)c1c(C)[nH]c(/C=C2\C(=O)Nc3ccc(F)cc32)c1C [SUNITINIB]
Summary of the method: (§1)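 Inhibitor was applied to tumour cell lines at eight concentrations (0.5 to 1000 nM) for five days in 384-well plates. Luminescence from CellTiter-Glo, scaled to DMSO-only wells, gave surviving fractions in three screens per line, and these were fitted by 3-parameter logistic regression with the drc R package. The area under the curve is an unscaled activity area. Aref was 0, and dose was on a log10 scale.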

VINORELBINE = compound: CCC1=C[C@@H]2CN(C1)Cc1c([nH]c3ccccc13)[C@@](C(=O)OC)(c1cc3c(cc1OC)N(C)[C@H]1[C@@](O)(C(=O)OC)[C@H](OC(C)=O)[C@]4(CC)C=CCN5CC[C@]31[C@@H]54)C2 [VINORELBINE]
Summary of the method: as §1

EVEROLIMUS = compound: CO[C@H]1C[C@@H]2CC[C@@H](C)[C@@](O)(O2)C(=O)C(=O)N2CCCC[C@H]2C(=O)O[C@H]([C@H](C)C[C@@H]2CC[C@@H](OCCO)[C@H](OC)C2)CC(=O)[C@H](C)/C=C(\C)[C@@H](O)[C@@H](OC)C(=O)[C@H](C)C[C@H](C)/C=C/C=C/C=C/1C [EVEROLIMUS]
Summary of the method: as §1

MK2206 = compound: NC1(c2ccc(-c3nc4ccn5c(=O)[nH]nc5c4cc3-c3ccccc3)cc2)CCC1 [MK2206]
Summary of the method: as §1

METHOTREXATE = compound: CN(Cc1cnc2nc(N)nc(N)c2n1)c1ccc(C(=O)N[C@@H](CCC(=O)O)C(=O)O)cc1 [METHOTREXATE]
Summary of the method: as §1

[1] = compound: Cc1nc(Nc2n[nH]c3c2CN(C(=O)N[C@H](CN(C)C)c2ccccc2)C3(C)C)c2sccc2n1
Summary of the method: as §1

PLX-4720 = compound: CCCS(=O)(=O)Nc1ccc(F)c(C(=O)c2c[nH]c3ncc(Cl)cc23)c1F [PLX-4720]
Summary of the method: as §1

AZD4547 = compound: COc1cc(CCc2cc(NC(=O)c3ccc(N4CC(C)NC(C)C4)cc3)n[nH]2)cc(OC)c1 [AZD4547]
Summary of the method: as §1

GEMCITABINE = compound: Nc1ccn([C@@H]2O[C@H](CO)[C@@H](O)C2(F)F)c(=O)n1 [GEMCITABINE]
Summary of the method: as §1

ERLOTINIB = compound: C#Cc1cccc(Nc2ncnc3cc(OCCOC)c(OCCOC)cc23)c1 [ERLOTINIB]
Summary of the method: as §1

ETOPOSIDE = compound: COc1cc([C@@H]2c3cc4c(cc3[C@@H](O[C@@H]3O[C@@H]5CO[C@@H](C)O[C@H]5[C@H](O)[C@H]3O)[C@H]3COC(=O)[C@H]23)OCO4)cc(OC)c1O [ETOPOSIDE]
Summary of the method: as §1

[2] = compound: O=C(NOCC1CC1)c1ccc(F)c(F)c1Nc1ccc(I)cc1Cl
Summary of the method: as §1

MK0752 = compound: O=C(O)CC[C@H]1CC[C@@](c2cc(F)ccc2F)(S(=O)(=O)c2ccc(Cl)cc2)CC1 [MK0752]
Summary of the method: as §1

Test System | area under dose-response curve (SUNITINIB) | area under dose-response curve (VINORELBINE) | area under dose-response curve (EVEROLIMUS) | area under dose-response curve (MK2206) | area under dose-response curve (METHOTREXATE) | area under dose-response curve [1] | area under dose-response curve (PLX-4720) | area under dose-response curve (AZD4547) | area under dose-response curve (GEMCITABINE) | area under dose-response curve (ERLOTINIB) | area under dose-response curve (ETOPOSIDE) | area under dose-response curve [2] | area under dose-response curve (MK0752)
NOS1 BONE | 1.78 | 1.92 | 1.75 | 2.74 | 3.88 | 1.98 | 3.29 | 2.71 | 2.31 | – | – | – | –
OSHN BONE | 3.18 | 1.83 | 3.41 | 3.58 | 1.28 | 1.67 | 3.06 | 3.57 | – | 3.68 | 3 | 3.24 | –
RDES SOFT TISSUE | 2.98 | 1.91 | 3.46 | – | 1.28 | 2.66 | 2.9 | – | 1.4 | 4.03 | 2.91 | 4.3 | 3.76
S68 BREAST | 2.58 | 1.53 | 1.39 | 2.5 | 3.64 | 1.4 | 2.92 | 3.45 | 1.22 | – | 2.65 | 2.84 | 3.26
SAOS2 BONE | 2.75 | 1.6 | 3.1 | 3.03 | – | 1.41 | 3.06 | – | 0.983 | – | 3.15 | 3.22 | 3.89
SCC36 HEADNECK | 2.53 | 1.6 | 3.13 | 2.91 | 2.83 | 0.887 | 2.88 | – | 2.34 | 2.92 | – | – | –
SCC47 HEADNECK | 3.14 | 1.84 | 3.2 | 3.26 | 2.96 | 1.99 | 3.12 | 3.44 | 2.22 | – | 3.17 | 2.91 | –
SCC90 HEADNECK | 3.19 | 1.52 | 2.09 | 3.03 | 2.81 | 1.7 | 3.12 | 3.57 | 1.46 | 2.89 | 3.67 | 2.18 | –
SG27 HEADNECK | 3.67 | 3.81 | 3.13 | – | – | 1.72 | 2.98 | 2.8 | 3.22 | 3.58 | 3.45 | – | –
SG28 HEADNECK | 2.12 | 2.47 | – | – | – | 2.12 | 2.51 | – | – | – | 3.66 | 2.72 | 3.56
SG31 HEADNECK | 2.47 | 2.07 | 2.18 | – | 3.94 | 2.15 | 2.73 | 3.1 | 2.51 | – | – | 2.78 | 3.35
SG32 HEADNECK | 1.96 | 1.95 | – | 3.68 | 3.65 | 1.04 | 2 | 3.26 | 1.77 | 3.57 | – | 2.65 | 3.82
SIHA CERVIX | 3.13 | 2.25 | 2.23 | 3.01 | 2.99 | 1.55 | 3.18 | 3.02 | 2.4 | – | – | 2.76 | 3.79
SJSA1 BONE | 3.16 | 2.09 | 5.2 | 3.03 | 5.58 | 1.92 | 3.17 | 3.5 | 5.62 | – | 3.13 | 3.08 | 3.53
SKBR3 BREAST | 2.46 | 1.38 | 1.31 | 2.48 | 2.7 | 1.62 | 3.02 | 3.75 | 1.76 | 3.55 | 3.1 | – | 3.29
SUM44 BREAST | – | 1.61 | 2.5 | – | 3.95 | 3.07 | 3.17 | 3.48 | – | 4.26 | 3.47 | 3.4 | 3.38
SUM149 BREAST | 2.12 | 1.46 | 1.67 | 3.19 | 2.98 | 1.13 | – | – | 0.539 | 2.76 | 2.41 | 2.25 | –
SUM149.B1*.S BREAST | 2.35 | 2.37 | 3.22 | 3.63 | – | 1.97 | – | 3.88 | 1.44 | 3.76 | – | 2.74 | 3.78
SUM159 BREAST | 3.06 | 1.98 | 2.88 | 3.58 | 3.2 | 2.39 | – | 3.84 | 1.68 | 3.56 | 2.91 | 2.75 | –
VCAP PROSTATE | 3.14 | 1.32 | 3.02 | 2.65 | 3.36 | 1.29 | 3.22 | – | 1.1 | 3.63 | – | 3.17 | 3.78
VP229 BREAST | 2.41 | 2 | 1.96 | – | 3.77 | 1.92 | 3.1 | – | 1.97 | 2.92 | 3.78 | – | –
YAMATO SYNOVIAL | 1.58 | 2.04 | 2.2 | 2.75 | 2.44 | 2.79 | 2.65 | – | 1.25 | 4.34 | – | 3.26 | 4.77
ZR751 BREAST | 3.62 | 1.87 | 1.57 | 1.96 | 2.86 | 1.83 | 2.73 | 3.05 | 2.02 | – | – | 2.56 | 3.79

From the supplement of paper PMC6045584
